Experimental findings from patent US12558396B2, “Use of cyclo(His-Pro) (CHP) for preventing, alleviating or treating peritoneal fibrosis” (NOVMETAPHARMA CO., LTD., priority 2019, dated 2026) are described below.

What all share (assay type): in vivo, C57BL/6 male mice
For assay [1], the system named is animal model of peritoneal fibrosis. Put plainly: Immunohistochemical staining of ICAM-1 and F4/80 in peritoneum of animal model of peritoneal fibrosis. The following applies: CHP 17.5 and 35 mg/kg orally, 30 days, vs CG-PD, FIG. 2. Here is the method: (§1) In order to create an animal model of peritoneal fibrosis, 7-week-old C57BL/6 male mice were purchased from Koatech and bred under constant conditions (temperature: 22±2° C., relative humidity: 55±10%, circadian cycle: 12 hours). Five animals were grouped into one group, and water and food were freely supplied in cages, and they were used in the experiment after acclimatization for one week before the experiment. After the acclimatization period, 0.1% chlorohexidine was administered by intraperitoneal injection every 3 days for 30 days to establish an animal model of peritoneal fibrosis. […] Group 3 was orally administrated with CHP at a concentration of 17.5 mg/kg (CG-PD+CHP(17.5)), and Group 4 was orally administered with CHP at a concentration of 35 mg/kg (CG-PD+CHP(35)) through 1 mL syringes every day for 30 days.
Peritoneal tissues were extracted from the mice of each group of Example 1-1, fixed in 10% formalin for immunostaining and then embedded in paraffin. Using the streptavidin biotin peroxidase (Vector Laboratories) method, these were reacted with each of the anti-ICAM1 antibody and the […] at 4° C. for 16 hours, followed by color development with diaminobenzidine tetrahydrochloride (DAB) to confirm the expressions.

The test system is the same in assay [2]. Put plainly: Peritoneal tissue staining (PAS, Masson's trichrome, Sirius red) in animal model of peritoneal fibrosis. As to conditions: FIG. 1. As to the method: as §1
Among the experimental animals designed in Example 1-1, the peritoneum was obtained from the mice of the groups administered with the drug and 0.1% chlorohexidine for 30 days from the xyphoid process to the upper part of the pelvic cavity, and then sacrificed with whole blood. From the skin to the parietal peritoneum, the tissues of the left abdomen were excised in a size of 0.5×1.0 cm, and some were fixed in 10% formalin for immunostaining and then embedded in paraffin. The tissue sections were cut to a thickness of 4 μm and evaluated by performing Periodic acid-Schiff (PAS) staining, Masson's trichrome (MT) staining and Sirius Red staining to check the degree of peritoneal fibrosis. After observation with an optical microscope, photographs were taken (Olympus BX-50, Olympus Optical, Tokyo, Japan).

For assay [3] the test system is unchanged. The assay can be described thus: Real-time PCR of collagen 1, p21 and E-cadherin in peritoneal tissue of animal model of peritoneal fibrosis. The following applies: real-time PCR corrected by GAPDH, CHP 17.5 and 35 mg/kg orally, vs CG-PD. As to the method:
as §1
Isoflurane which is necessary for anesthesia and dissection of mice in each group of Example 1-1 was purchased from Hana Pharma, and VetEquip's RC2 Rodent Circuit Controller Anesthesia System was prepared. Phosphate-buffered saline (PBS) was purchased from Hyclone. In order to isolate the peritoneal tissue of the mice, the mice were anesthetized by respiratory anesthesia with 3 to 3.5% isoflurane. After blood was drawn from the heart of the anesthetized mice, the peritoneal tissue was immediately removed, 50 mg of the peritoneum was cut, 500 μL of NucleoZOL was added, and then it was crushed using IKA's T10 homogenizer. Subsequently, RNA was extracted according to NucleoZOL's total RNA isolation protocol, and cDNA was synthesized from 1 μg of RNA by reverse transcription polymerase chain reaction using the iScript cDNA synthesis kit. The synthesized cDNA was analyzed by real-time PCR with iQ SYBR Green Supermix using forward/reverse primer sets corresponding to each gene. The expression value of each gene was corrected by dividing by the expression value of GAPDH, a housekeeping gene. Statistical significance was analyzed using Student's t-test statistical method with the peritoneal fibrosis control group (CG-PD) (*p<0.05, […], ***p<0.0005).

The test system is the same in assay [4]. Put plainly: Western blot of collagen 1, αSMA, p16 and p21 in peritoneal tissue of animal model of peritoneal fibrosis. As to conditions: Western blot corrected by GAPDH, CHP 17.5 and 35 mg/kg orally, vs CG-PD, FIGS. 3a. Here is the method:
as §1
Isoflurane which is necessary for anesthesia and dissection of mice in each group of Example 1-1 was purchased from Hana Pharm, and VetEquip's RC2 Rodent Circuit Controller Anesthesia System was prepared. Phosphate-buffered saline (PBS) was purchased from Hyclone. In order to isolate the peritoneal tissue of the mice, the mice were anesthetized by respiratory anesthesia with 3 to 3.5% isoflurane. After blood was drawn from the heart of anesthetized mice, the peritoneal tissue was immediately removed, washed with PBS, and 50 mg of the peritoneal tissue was cut out and placed in 500 μL of RIPA buffer containing protease and phosphatase inhibitors, and it was crushed using IKA's T10 homogenizer. After standing on ice for 15 minutes, centrifugation was performed at 15000 rpm at 4° C. The supernatant was collected and the protein concentration was measured by BCA quantitation, and in the same amount of the samples, the protein was separated using the Bolt™ protein gel electrophoresis system, and then transferred to a nitrocellulose membrane. The membrane was blocked with 5% skim milk at room temperature for 1 hour, and then reacted with primary antibodies collagen 1, αSMA, NRF2, p16, p21 and GAPDH antibodies overnight at 4° C. After washing 3 times for 10 minutes with TBST, the reaction was performed with the secondary antibodies at room temperature for 1 hour. After washing 3 times for 10 minutes with TBST, the expression level was measured by reacting with ECL. The size of the appearing band was quantified using the ImageJ program, and each band size value was divided by the GAPDH band size value and corrected. Statistical significance was analyzed using Student's t-test statistical method with the peritoneal fibrosis control group (CG-PD) (*p<0.05, […], ***p<0.0005).
Background: A western blot detects proteins with antibodies after separation by electrophoresis.

On to `O=C1N[C@@H](Cc2cnc[nH]2)C(=O)N2CCC[C@@H]12` [CHP, cyclo(His-Pro)], for which, in assay [1], the “expression level of ICAM-1 (IHC)” value is listed as “decreased” and the “infiltration of immune cells (f4/80-positive cells, IHC)” value was “rapidly decreased”. For the same compound, the “thickened peritoneal layer (MT staining)” value in assay [2] (CHP 35 mg/kg administration group compared to 17.5 mg/kg administration group, oral, daily, 30 days) is listed as “significantly reduced”. Besides, in assay [2] (CHP 17.5 and 35 mg/kg orally every day for 30 days, 0.1% chlorohexidine i.p. model, vs fibrosis control group (CG-PD)), the “deposition of immune cells (PAS staining)” value is given as “significantly reduced in a concentration-dependent manner”. For the same compound, in assay [2] (CHP 17.5 and 35 mg/kg orally every day for 30 days), the “accumulation of extracellular matrix (ECM) collagen (Sirius red staining)” value is on record as “significantly reduced in a concentration-dependent manner”. Moreover, the “mRNA expression of extracellular matrix collagen 1” value in assay [3] (FIG. 4a) was “decreased”. Besides, in assay [3] (FIG. 4b), the p21 gene expression entry is on record as “significantly reduced”. Besides, the “expression level of E-cadherin (gene)” value in assay [3] (FIG. 4c) is “significantly increased”. For the same compound, in assay [4] (3b), the “extracellular matrix collagen (collagen 1) protein expression” value was “statistically significantly decreased”. Besides, in assay [4] (3c), the α-SMA protein expression result was “statistically significantly decreased”. Further, the p16 protein expression entry in assay [4] (3e) is “significantly reduced”. Moreover, the p21 protein expression entry in assay [4] (3d) was “significantly reduced”.
